Data set [1] deals with T1, COX-2 (UniProt P35354).
T1 sequence (P35354 1-604): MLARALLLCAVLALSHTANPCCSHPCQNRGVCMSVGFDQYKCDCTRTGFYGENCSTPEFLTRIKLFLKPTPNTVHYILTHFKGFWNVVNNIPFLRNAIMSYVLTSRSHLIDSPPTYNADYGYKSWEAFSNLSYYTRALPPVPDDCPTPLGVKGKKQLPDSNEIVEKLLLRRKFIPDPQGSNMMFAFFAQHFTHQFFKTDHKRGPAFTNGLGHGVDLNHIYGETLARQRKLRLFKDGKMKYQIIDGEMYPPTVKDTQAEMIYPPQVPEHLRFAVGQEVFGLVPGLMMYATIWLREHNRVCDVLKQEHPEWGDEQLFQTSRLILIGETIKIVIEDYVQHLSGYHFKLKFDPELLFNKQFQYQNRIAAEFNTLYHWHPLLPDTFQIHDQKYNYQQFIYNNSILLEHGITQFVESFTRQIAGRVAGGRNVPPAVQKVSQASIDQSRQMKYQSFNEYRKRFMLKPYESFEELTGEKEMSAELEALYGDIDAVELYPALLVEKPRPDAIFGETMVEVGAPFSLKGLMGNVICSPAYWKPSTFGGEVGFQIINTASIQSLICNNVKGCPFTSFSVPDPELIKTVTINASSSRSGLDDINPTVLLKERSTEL
Nature of the data set: Fast assay for COX-2 activity (PGE2 ELISA). The data set is classed as biochemical, human or murine. The settings on record: fast assay: 10 min pre-incubation at 25° C., reaction stopped after two minutes, pH 7.5. (In general: ELISA stands for enzyme-linked immunosorbent assay.)
Method: The homogenate was centrifuged at 10,000×G for 30 minutes, and the resultant supernatant was stored at −80° C. before being assayed for COX activity.
Fast Assay for COX-1 and COX-2 Activity
COX activity was assayed as PGE2 formed/μg protein/time using an ELISA to detect the prostaglandin released. CHAPS-solubilized insect cell membranes containing the appropriate COX enzyme were incubated in a potassium phosphate buffer (0.05 M Potassium phosphate, pH 7.5, 2 μM phenol,1 μM heme, 300 μM epinephrine) with the addition of 20 μl of 100 μM arachidonic acid (10 μM). […] The PGE2 formed was measured by standard ELISA technology (Cayman Chemical).

For data set [2], the target named is T1, COX-2. Nature of the data set: Assay for COX-2 activity (PGE2 ELISA). The settings on record: read-out: COX-2 IC50; 10–20 minutes pre-incubation, reaction stopped after ten minutes, pH 8.0.
A further data set deals with COX-1 (UniProt P23219). Briefly: Assay for COX-1 activity (PGE2 ELISA). Particulars: read-out: COX-1 IC50; 10–20 minutes pre-incubation, reaction stopped after ten minutes, pH 8.0.

Usually IC50 stands for the midpoint of a concentration-inhibition curve. As usually defined, the melting point is the temperature of the solid-liquid transition.

SMILES strings stand for the structures.

Method for COX-1: Recombinant baculoviruses were isolated by transfecting 4 μg of baculovirus transfer vector DNA into SF9 insect cells (2×10^8) along with 200 ng of linearized baculovirus plasmid DNA by the calcium phosphate method. […] Recombinant viruses were purified by three rounds of plaque purification and high titer (10^7–10^8 pfu/mL) stocks of virus were prepared. For large scale production, SF9 insect cells were infected in 10 liter fermentors (0.5×10^6/mL) with the recombinant baculovirus stock such that the multiplicity of infection was 0.1. […] The homogenate was centrifuged at 10,000×G for 30 minutes, and the resultant supernatant was stored at −80° C. before being assayed for COX activity.
Assay for COX-1 and COX-2 Activity
COX activity was assayed as PGE2 formed/μg protein/time using an ELISA to detect the prostaglandin released. CHAPS-solubilized insect cell membranes containing the appropriate COX enzyme were incubated in a potassium phosphate buffer (50 mM, pH 8.0) containing epinephrine, phenol, and heme with the addition of arachidonic acid (10 μM). […] The PGE2 formed was measured by standard ELISA technology (Cayman Chemical).

On to `CSc1ccc2c(c1)C=C(C(=O)O)C(C(F)(F)F)O2` (stereo not shown) [Example 2, 6-(Methylthio)-2-(trifluoromethyl)-2H-1-benzopyran-3-carboxylic acid], for which the IC50 against COX-2 [1] was < 100 nM; at COX-2 [2], < 0.1 µM; on COX-1, 5 µM.
In the case of `COc1ccc(Oc2ccc3c(c2)C=C(C(=O)O)C(C(F)(F)F)O3)cc1` (stereo not shown) [Example 7, 6-(4-Methoxyphenoxy)-2-(trifluoromethyl)-2H-1-benzopyran-3-carboxylic acid], the melting point fell in the range of 181.7 to 182.9 °C. Besides, the IC50 on COX-2 [2] was < 0.1 µM. Further, the IC50 on COX-1 stood at 1 µM.
As for `COc1ccc(Oc2ccc3c(c2)C=C(C(=O)O)C(C(F)(F)F)O3)cc1Cl` (stereo not shown) [Example 9, 6-(3-Chloro-4-methoxyphenoxy)-2-(trifluoromethyl)-2H-1-benzopyran-3-carboxylic acid], the melting point is 205 to 207 °C. Further, the IC50 at COX-2 [1] was < 100 nM. Besides, the IC50 at COX-2 [2] is < 0.1 µM. Moreover, the IC50 at COX-1 is < 0.1 µM.
For `O=C(O)C1=Cc2cc(Cl)cc(Br)c2OC1C(F)(F)F` (stereo not shown) [Example 15, 8-Bromo-6-chloro-2-trifluoromethyl-2H-1-benzopyran-3-carboxylic acid], the melting point was 227.8 to 228.9 °C. Moreover, the IC50 against COX-2 [1] was > 100 nM. Moreover, on COX-2 [2], the IC50 came to 134 µM. Further, the IC50 on COX-1 is 44 µM.
`CC(C)(C)c1cc2c(c(C(C)(C)C)c1)OC(C(F)(F)F)C(C(=O)O)=C2` (stereo not shown) [Example 23, 6,8-bis(1,1-Dimethylethyl)-2-trifluoromethyl-2H-1-benzopyran-3-carboxylic acid] showed a melting point of 171.6 to 175 °C. The molecule also displayed an IC50 on COX-2 [1] of 7000 nM. The IC50 at COX-2 [2] came to 24 µM. Moreover, on COX-1, the IC50 is > 100 µM.
The corresponding values for `O=C(O)C1=Cc2cc(Cl)c(-c3ccccc3)cc2OC1C(F)(F)F` (stereo not shown) [Example 30, 6-Chloro-7-phenyl-2-trifluoromethyl-2H-1-benzopyran-3-carboxylic acid] are 185.3 to 187.8 °C, < 100 nM, 16 µM and 3.8 µM.
For the molecule `O=C(O)C1=Cc2cc(Br)cc(Br)c2OC1C(F)(F)F` (stereo not shown) [Example 33, 6,8-Dibromo-2-trifluoromethyl-2H-1-benzopyran-3-carboxylic acid], the melting point fell in the range of 225 to 226 °C. Further, at COX-2 [1], the IC50 was < 100 nM. Further, the IC50 on COX-2 [2] worked out at 8.2 µM. Further, the IC50 on COX-1 stood at 28 µM.
Turning to `CCOC(=O)C1=Cc2cc(N)ccc2OC1C(F)(F)F` (stereo not shown) [Example 35, Ethyl 6-amino-2-trifluoromethyl-2H-1-benzopyran-3-carboxylate], the melting point fell in the range of 111 to 115 °C. This molecule also yielded an IC50 on COX-2 [1] of 2200 nM. The IC50 on COX-2 [2] came to 1.7 µM. The 50% inhibitory concentration (IC50) on COX-1 was found to be 11 µM.
`COc1cc(Cl)c2c(c1)C=C(C(=O)O)C(C(F)(F)F)O2` (stereo not shown) [Example 40, 8-Chloro-6-methoxy-2-trifluoromethyl-2H-1-benzopyran-3-carboxylic acid] returned a melting point of 204.5 to 206.9 °C. At COX-1, the IC50 was 43 µM.
With `O=C(O)C1=Cc2cc(Br)cc(Cl)c2OC1C(F)(F)F` (stereo not shown) [Example 42, 6-Bromo-8-chloro-2-trifluoromethyl-2H-1-benzopyran-3-carboxylic acid], the melting point was 220.7 to 221.7 °C. Besides, the IC50 at COX-2 [1] is < 100 nM. For the same molecule, the IC50 at COX-2 [2] is < 0.1 µM. For the same molecule, on COX-1, the IC50 is 11 µM.
The like results for `Cc1cc(Br)c2c(c1)C=C(C(=O)O)C(C(F)(F)F)O2` (stereo not shown) [Example 44, 8-Bromo-6-methyl-2-trifluoromethyl-2H-1-benzopyran-3-carboxylic acid] were, in that order, 237 to 238 °C, 300 nM, 21 µM and > 100 µM.
`O=C(O)C1=Cc2c(F)ccc(Br)c2OC1C(F)(F)F` (stereo not shown) [Example 45, 8-Bromo-5-fluoro-2-trifluoromethyl-2H-1-benzopyran-3-carboxylic acid] came in with a melting point of 221.7 to 223.3 °C. This molecule also registered an IC50 on COX-2 [1] of 200 nM. Further, the IC50 on COX-2 [2] stood at 46 µM. Also, the IC50 on COX-1 was > 100 µM.
As to `COc1cc(Br)cc2c1OC(C(F)(F)F)C(C(=O)O)=C2` (stereo not shown) [Example 47, 6-Bromo-8-methoxy-2-trifluoromethyl-2H-1-benzopyran-3-carboxylic acid], the figures for the IC50 on COX-2 [1], on COX-2 [2] and at COX-1 were 1900 nM, 1.7 µM and > 100 µM, respectively.
`O=C(O)C1=Cc2cc(S(=O)(=O)NCc3ccccc3)ccc2OC1C(F)(F)F` (stereo not shown) [Example 49, 6-[[(Phenylmethyl)amino]sulfonyl]-2-trifluoromethyl-2H-1-benzopyran-3-carboxylic acid] gave a melting point of 223.3 to 224.4 °C. This molecule also registered an IC50 at COX-2 [1] of 24000 nM. On COX-2 [2], the IC50 came to 31 µM. Further, the IC50 at COX-1 is > 100 µM.
With `O=C(O)C1=Cc2cc(S(=O)(=O)N3CCOCC3)ccc2OC1C(F)(F)F` (stereo not shown) [Example 53, 6-[(4-Morpholino)sulfonyl]-2-trifluoromethyl-2H-1-benzopyran-3-carboxylic acid], the melting point was in the range of 215.2 to 219.3 °C. This molecule also came in with an IC50 at COX-2 [1] of 8000 nM. Further, the IC50 on COX-2 [2] amounted to 6 µM. The IC50 at COX-1 is > 100 µM.
Turning to `CC(C)CNS(=O)(=O)c1ccc2c(c1)C=C(C(=O)O)C(C(F)(F)F)O2` (stereo not shown) [Example 55, 6-[(2-Methylpropyl)aminosulfonyl]-2-trifluoromethyl-2H-1-benzopyran-3-carboxylic acid], the melting point was in the range of 190.6 to 192.4 °C. This molecule also displayed an IC50 against COX-2 [1] of 46000 nM. On COX-2 [2], the IC50 amounted to 53 µM. Further, the IC50 at COX-1 is > 100 µM.
The molecule `CS(=O)(=O)c1ccc2c(c1)C=C(C(=O)O)C(C(F)(F)F)O2` (stereo not shown) [Example 56, 6-Methylsulfonyl-2-trifluoromethyl-2H-1-benzopyran-3-carboxylic acid] displayed a melting point of 208.3 to 212.4 °C. On COX-2 [1], the IC50 is 12000 nM. Also, on COX-2 [2], the IC50 is 29 µM. In addition, the IC50 at COX-1 is > 100 µM.
For the molecule `O=C(O)C1=Cc2cc(S(=O)(=O)NCc3ccccc3)cc(Cl)c2OC1C(F)(F)F` (stereo not shown) [Example 57, 8-Chloro-6-[[(phonylmethyl)amino]sulfonyl]-2-trifluoromethyl-2H-1-benzopyran-3-carboxylic acid], the IC50 on COX-2 [1] was 21000 nM; on COX-2 [2], 21 µM; at COX-1, > 100 µM.
The corresponding values for `O=C(O)C1=Cc2cc(Cl)ccc2O[C@@H]1C(F)(F)F` [Example 66, (S)-6-Chloro-2-trifluoromethyl-2H-1-benzopyran-3-carboxylic acid] are 82000 nM, < 0.1 µM and 16.9 µM.
Consider `O=C(O)C1=Cc2cc(OC(F)(F)F)ccc2O[C@@H]1C(F)(F)F` [Example 67, (S)-6-Trifluoromethoxy-2-trifluoromethyl-2H-1-benzopyran-3-carboxylic acid], for which, at COX-1, the IC50 was 6.7 µM.
Take `O=C(O)C1=Cc2cc(C(F)(F)F)ccc2OC1C(F)(F)F` (stereo not shown) [Example 82, 2,6-Bis(trifluoromethyl)-2H-1-benzopyran-3-carboxylic acid]: the IC50 at COX-1 came to 5.6 µM.
Turning to `O=C(O)C1=Cc2cc(SC(F)(F)F)ccc2OC1C(F)(F)F` (stereo not shown) [Example 91, 2-(Trifluoromethyl)-6-[(trifluoromethyl)thio]-2H-1-benzopyran-3-carboxylic acid], the IC50 is < 100 nM on COX-2 [1], 0.2 µM on COX-2 [2] and 36 µM at COX-1.
For `O=C(O)C1=Cc2cc(C(=O)c3ccccc3)ccc2OC1C(F)(F)F` (stereo not shown) [Example 96, 6-Benzoyl-2-(trifluoromethyl)-2H-1-benzopyran-3-carboxylic acid], the melting point lay in the range of 269.8 to 270.8 °C. Besides, half-maximal inhibition at COX-2 [1] (IC50) was put at 200 nM. Besides, the IC50 at COX-2 [2] came out at 0.3 µM.
For the molecule `Cc1cc2c(cc1Cl)C=C(C(=O)O)C(C(F)(F)F)S2` (stereo not shown) [Example 152, 6-Chloro-7-methyl-2-(trifluoromethyl)-2H-1-benzothiopyran-3-carboxylic acid], the IC50 at COX-2 [1] is < 100 nM; on COX-2 [2], < 0.1 µM; on COX-1, 10 µM.
`O=C(O)C1=Cc2cc(Cl)c(Oc3ccccn3)cc2OC1C(F)(F)F` (stereo not shown) [Example 202, 6-Chloro-7-[2-pyridinyloxy]-2-(trifluoromethyl)-2H-1-benzopyran-3-carboxylic acid] came in with a melting point of 234.2 to 235.4 °C. The IC50 at COX-2 [2] was < 0.1 µM. The IC50 at COX-1 is 42.8 µM.
Take `O=C(O)C1=Cc2cc(Cl)c(Oc3ccc([N+](=O)[O-])cc3)cc2OC1C(F)(F)F` (stereo not shown) [Example 203, 6-Chloro-7-(4-nitrophenoxy)-2-(trifluoromethyl)-2H-1-benzopyran-3-carboxylic acid]: the melting point is 246.4 to 248.3 °C. Besides, at COX-2 [1], the IC50 was < 100 nM.

(Values after US7138411B2, “Substituted benzopyran derivatives for the treatment of inflammation” (G.D. Searle & Co., priority 1997, dated 2006).)
